The values below come from patent publication US8937091B2 (Japan Science and Technology Agency, priority 2009, dated 2015).

Assay [1] relates to SOCE (store operated calcium entry) in CHO cells. Briefly: Assay of SOCE (store operated calcium entry)-inhibiting action. It is filed as cell-based, Chinese hamster. The conditions noted are these: for inhibition at 10 µM: test compound 10 μmol; for inhibition at 10 µM / inhibition at 30 µM / inhibition at 100 µM: read-out: SOCE level (percentage of inhibition); for inhibition at 30 µM: test compound 30 μmol. The method in brief:
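CHO cells in calcium-free BSS received compound, then 1 μM thapsigargin 2 min later to deplete stores; after 9 min, 2 mM calcium chloride (final) added. Percent inhibition of the rise in intracellular calcium determined at various compound concentrations.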

Assay [2] relates to IICR (IP3 induced calcium release) in CHO cells. As to the kind of experiment: Assay of IICR (IP3 induced calcium release)-inhibiting action. It is filed as cell-based, Chinese hamster. The conditions noted are these: for inhibition at 10 µM: test compound 10 μmol. A digest of the protocol:
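CHO cell medium replaced with calcium-containing BSS; compound added 1 min later, then 10 μM ATP after a further 2 min. Percent inhibition of the ATP-evoked rise in intracellular calcium determined at each compound concentration.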

Setting [3] is: Cricetulus griseus, CHO, CHO cells, thapsigargin.
The mark [4] stands for this setting: Cricetulus griseus, CHO, test compound 100 μmol, CHO cells, thapsigargin.
The mark [5] stands for this setting: Cricetulus griseus, CHO, CHO cells, 10 μM ATP, read-out: IICR level (percentage of inhibition).
The mark [6] stands for this setting: Cricetulus griseus, CHO, test compound 30 μmol, CHO cells, 10 μM ATP, read-out: IICR level (percentage of inhibition).
The mark [7] stands for this setting: Cricetulus griseus, CHO, test compound 100 μmol, CHO cells, 10 μM ATP, read-out: IICR level (percentage of inhibition).
Setting [8] is: Cricetulus griseus, CHO, Table 1.

pIC50: −log10 of the molar value.

Broadly, the inhibition is how much of the control response was suppressed. For `O=C(CCN(CCO)Cc1ccccc1)c1ccc(Br)s1` [Example 327, 2-(N-benzylhydroxyethyl)aminoethyl-5-bromo-2-thienylketone], the inhibition at 10 µM in assay [1] (setting [3]) stood at 20%; in assay [2] (setting [5]), 70%. Also, the inhibition at 30 µM in assay [1] (setting [3]) came to 20%; in assay [2] (setting [6]), 10%. Moreover, the inhibition at 100 µM in assay [1] (setting [4]) is 30%; in assay [2] (setting [7]), 40%.

Turning to `Cc1cc(C(=O)CCN(Cc2ccccc2)C(C)C)c(C)o1` [Example 221, 2-(N-benzylisopropyl)aminoethyl-3-(2,5-dimethylfuryl)ketone], the inhibition at 10 µM in assay [1] (setting [3]) and in assay [2] (setting [5]) was 0% throughout. Moreover, the inhibition at 30 µM in assay [1] (setting [3]) and in assay [2] (setting [6]) was 0% in each case. Also, the inhibition at 100 µM in assay [1] (setting [4]) and in assay [2] (setting [7]) was 0% in each case.

For `NCCSSCCN(CCC(=O)c1ccc(I)cc1)CCC(=O)c1ccc(I)cc1` [Example 388, N,N-bis(4-iodobenzoylethyl)cystamine], the inhibition at 10 µM in assay [1] (setting [3]) amounted to 20%; in assay [2] (setting [5]) it was 0%. Further, the inhibition at 30 µM in assay [1] (setting [3]) turned out to be 40%; in assay [2] (setting [6]), 0%. The inhibition at 100 µM came to 50% in assay [1] (setting [4]) and 70% in assay [2] (setting [7]).

For `O=C(CCN1CCCC1CO)c1cnccn1` (stereo not shown) [Example 282, 2-(2-hydroxymethylpyrrolidino)ethyl-2-pyrazylketone], the results for the inhibition at 30 µM in assay [1] (setting [3]) and in assay [2] (setting [6]) were 0% and 20%, respectively. Further, the inhibition at 100 µM in assay [1] (setting [4]) is 0%; in assay [2] (setting [7]) it was 50%. Besides, the inhibition at 10 µM in assay [2] (setting [5]) was found to be 0%.

For the compound `CC(C)(C)N(CCC(=O)c1ccncc1)Cc1ccccc1` [Example 210, 2-(N-t-butylbenzyl)aminoethyl-4-pyridylketone], the inhibition at 10 µM in assay [1] (setting [3]) and in assay [2] (setting [5]) was 0% throughout. The inhibition at 30 µM was 10% in assay [1] (setting [3]) and 20% in assay [2] (setting [6]). For the same compound, the values for the inhibition at 100 µM in assay [1] (setting [4]) and in assay [2] (setting [7]) were 30% and 0%, respectively.

As for `CC(C)N(CCC(=O)c1ccc2ccccc2c1)Cc1ccccc1` [Example 66, 2-(N-isopropylbenzyl)aminoethyl-2-naphthylketone], the inhibition at 10 µM came out at 0% in assay [1] (setting [3]) and 10% in assay [2] (setting [5]). Also, the inhibition at 30 µM in assay [1] (setting [3]) turned out to be 0%; in assay [2] (setting [6]) it was 10%. Besides, the inhibition at 100 µM in assay [1] (setting [4]) stood at 0%; in assay [2] (setting [7]), 70%.

Turning to `CCN(CCO)CCC(=O)c1cc(C)c(C)o1` [Example 226, 2-(N-2-hydroxyethylethyl)aminoethyl-4,5-dimethyl-2-furylketone], the inhibition at 10 µM in assay [1] (setting [3]) and in assay [2] (setting [5]) was 0% each time. For the same compound, the inhibition at 30 µM in assay [1] (setting [3]) and in assay [2] (setting [6]) was 0% throughout. The inhibition at 100 µM stood at 0% in assay [1] (setting [4]) and 50% in assay [2] (setting [7]).

In the case of `O=C(CCN(CCO)Cc1ccccc1)c1ccc(Cl)s1` [Example 268, 2-(N-benzyl-2-hydroxyethyl)aminoethyl-5-chloro-2-thiophenylketone], the inhibition at 10 µM was determined as 10% in assay [1] (setting [3]) and 0% in assay [2] (setting [5]). Also, the inhibition at 30 µM in assay [1] (setting [3]) and in assay [2] (setting [6]) was 0% in each case. The inhibition at 100 µM in assay [1] (setting [4]) was 10%; in assay [2] (setting [7]), 70%.

Consider `CN(CCC(=O)c1ccc2ccccc2c1)Cc1ccccc1` [Example 71, 2-(N-methylbenzyl)aminoethyl naphthylketone], for which, in assay [1] (setting [3]), the inhibition at 10 µM worked out at 0% and the inhibition at 30 µM was 0%. Moreover, the inhibition at 10 µM in assay [2] (setting [5]) amounted to 0%.

On to `CN(CCC(=O)c1ccc[nH]1)Cc1ccccc1` [Example 175, 2-(N-benzylmethyl)aminoethyl-2-pyrrolylketone], for which the inhibition at 10 µM was determined as 0% in assay [1] (setting [3]) and 10% in assay [2] (setting [5]). The inhibition at 30 µM in assay [1] (setting [3]) amounted to 0%; in assay [2] (setting [6]) it was 10%. For the same compound, the inhibition at 100 µM in assay [1] (setting [4]) came out at 0%; in assay [2] (setting [7]) it was 20%.

The pIC50 is −log10 of the IC50, conventionally taken in molar units. As to `CC(C)N(CCO)CCC(=O)c1ccco1` [Example 153, 2-(N-hydroxyethylisopropyl)aminoethyl-2-furylketone], in assay [1] (setting [3]), the inhibition at 10 µM was determined as 0%. In addition, the inhibition at 30 µM in assay [1] (setting [3]) amounted to 0%. Further, the pIC50 in assay [1] (setting [8]) is under 4.00; in assay [2] (setting [8]) it was 4.70. In addition, the “SOCE level (percentage of inhibition)” value in assay [1] (test compound 100 μmol, CHO cells, thapsigargin) was determined as 10%. Moreover, in assay [2] (Cricetulus griseus, CHO, test compound 20 μmol, CHO cells, 10 μM ATP, read-out: IICR level (percentage of inhibition)), the inhibition at 20 µM came to 50%. Besides, the “IICR level (percentage of inhibition)” value is on record as 60% in assay [2] (test compound 30 μmol, CHO cells, 10 μM ATP) and 80% in assay [2] (test compound 100 μmol, CHO cells, 10 μM ATP).

Take `CCN(CCC(=O)c1ccc2c(c1)Cc1ccccc1-2)Cc1ccccc1` [Example 218, 2-(N-benzylethyl)aminoethyl-2-florenylketone]: the results for the inhibition at 10 µM in assay [1] (setting [3]) and in assay [2] (setting [5]) were 20% and 10%, respectively. The inhibition at 30 µM was determined as 60% in assay [1] (setting [3]) and 40% in assay [2] (setting [6]). Also, the inhibition at 100 µM in assay [1] (setting [4]) and in assay [2] (setting [7]) was 70% throughout.

Regarding `CC(C)N(CCO)CCC(=O)c1ccc(C#N)cc1` [Example 309, 2-(N-hydroxylethylisopropyl)aminoethyl-4-cyanophenylketone], the inhibition at 10 µM in assay [1] (setting [3]) and in assay [2] (setting [5]) was 0% in each case. The inhibition at 30 µM in assay [1] (setting [3]) and in assay [2] (setting [6]) was 0% each time. Further, the figures for the inhibition at 100 µM in assay [1] (setting [4]) and in assay [2] (setting [7]) were 10% and 20%, respectively.

Regarding `Cc1cccc2cc(C(=O)CCN(Cc3ccccc3)C(C)C)ccc12` [Example 79, 2-(N-isopropylbenzyl)aminoethyl-5-methyl-2-naphthylketone], the inhibition at 10 µM in assay [1] (setting [3]) was 10%; in assay [2] (setting [5]) it was 70%. Moreover, the values for the inhibition at 30 µM in assay [1] (setting [3]) and in assay [2] (setting [6]) were 30% and 90%, respectively. In addition, the inhibition at 100 µM in assay [1] (setting [4]) turned out to be 70%; in assay [2] (setting [7]), 90%.

With `CC(C)N(CCO)CCC(=O)c1ccc[nH]1` [Example 170, 2-(N-isopropyl-2-hydroxyethyl)aminoethyl-2-pyrrolylketone], the inhibition at 10 µM in assay [1] (setting [3]) and in assay [2] (setting [5]) was 0% throughout. The inhibition at 30 µM in assay [1] (setting [3]) and in assay [2] (setting [6]) was 0% throughout. Further, the inhibition at 100 µM in assay [1] (setting [4]) and in assay [2] (setting [7]) was 0% in each case.

For `O=C(CCN1CCN(c2ccco2)CC1)c1ccc(F)cc1` [Example 211, 2-(N-2-furylpiperadino)ethyl-4-fluorophenylketone], the inhibition at 10 µM in assay [1] (setting [3]) is 0%; in assay [2] (setting [5]), 30%. The inhibition at 30 µM in assay [1] (setting [3]) amounted to 10%; in assay [2] (setting [6]) it was 20%. Besides, the values for the inhibition at 100 µM in assay [1] (setting [4]) and in assay [2] (setting [7]) were 30% and 20%, respectively.

For `CC(C)CN(CCC(=O)c1ccc(Br)s1)CC(C)C` [Example 384, 2-(N,N-diisobutyl)aminoethyl-5-bromo-2-thienylketone], the inhibition at 10 µM in assay [1] (setting [3]) and in assay [2] (setting [5]) was 0% each time. In addition, the figures for the inhibition at 30 µM in assay [1] (setting [3]) and in assay [2] (setting [6]) were 10% and 35%, respectively. The figures for the inhibition at 100 µM in assay [1] (setting [4]) and in assay [2] (setting [7]) were 100% and 70%, respectively.

`O=C(CCN(CCO)c1ccccc1)c1ccco1` [Example 132, 2-(N-phenylhydroxyethyl)aminoethyl-2-furylketone]: the inhibition at 10 µM in assay [1] (setting [3]) came out at 0%; in assay [2] (setting [5]), 10%. Besides, the inhibition at 30 µM in assay [1] (setting [3]) came to 0%; in assay [2] (setting [6]) it was 20%. Further, the inhibition at 100 µM in assay [1] (setting [4]) worked out at 0%; in assay [2] (setting [7]), 20%.

As to `CCCCN(CCC(=O)c1ccc2ccccc2c1)Cc1ccccc1` [Example 378, 2-(N-butyl-N-benzyl)aminoethyl-2-naphthylketone], the inhibition at 10 µM came out at 0% in assay [1] (setting [3]) and 50% in assay [2] (setting [5]). The inhibition at 30 µM in assay [1] (setting [3]) was found to be 0%; in assay [2] (setting [6]) it was 24%. Also, the values for the inhibition at 100 µM in assay [1] (setting [4]) and in assay [2] (setting [7]) were 41% and 46%, respectively.

As to `O=C(CCN1CCC(CCO)CC1)c1ccc(Br)s1` [Example 361, 2-(4-hydroxyethylpiperadino)ethyl-5-bromo-2-thienylketone], the inhibition at 10 µM in assay [1] (setting [3]) and in assay [2] (setting [5]) was 22% in each case. Also, the inhibition at 30 µM worked out at 2% in assay [1] (setting [3]) and 0% in assay [2] (setting [6]). Besides, the inhibition at 100 µM in assay [1] (setting [4]) and in assay [2] (setting [7]) was 19% in each case.

As for `O=C(CCN(c1ccccc1)c1ccccc1)c1cccc2ccccc12` [Example 70, 2-N-diphenylaminoethyl naphthylketone], the figures for the inhibition at 10 µM in assay [1] (setting [3]) and in assay [2] (setting [5]) were 0% and 10%, respectively. Moreover, the inhibition at 30 µM was 10% in assay [1] (setting [3]) and 0% in assay [2] (setting [6]). The inhibition at 100 µM in assay [1] (setting [4]) was 20%; in assay [2] (setting [7]), 40%.

`O=C(CCN(CCO)Cc1ccccc1)c1cnccn1` [Example 129, 2-(N-benzylhydroxyethyl)aminoethyl-2-pyrazylketone]: the inhibition at 10 µM in assay [1] (setting [3]) and in assay [2] (setting [5]) was 0% in each case. Also, the inhibition at 30 µM in assay [1] (setting [3]) was 0%; in assay [2] (setting [6]) it was 50%. For the same compound, the values for the inhibition at 100 µM in assay [1] (setting [4]) and in assay [2] (setting [7]) were 0% and 90%, respectively.
